Key:
[1] = Reaction kinetics with benzylazide monitored by QTOF-ESI mass spectrometry to determine rate constant kt; assay type: physicochemical; details: 1.0 eq benzylazide, ACN/water/acetic acid (3:1:0.01%), MS
Method: The kt value for the conversion of benzylazide with BCN-OH and TMTHSI was investigated by monitoring the reactions via mass spectrometry. In this study, QTOF mass spectrometry with an ESI source coupled to it, was utilized as a method of measurements. In detail, the alkyne (TMTSHI or BCN-OH in ACN/water/acetic acid (3:1:0.01%) was reacted with 1.0 eq benzylazide and reaction kinetics were measured using MS. The results of the measurements are included in FIG. 55. The measured kt value for TMTHSI in the reaction with benzylazide is 0.83 M^−1S^−1, which is approximately 7 times faster than BCN-OH (0.12 M^−1S^−1).

[2] = Reaction kinetics of model click reaction with benzylazide, measured by NMR (CDCl3); assay type: physicochemical
Method: The alkyne (TMTSHI or BCN-OH) was reacted with 1.3 eq benzylazide and reaction kinetics were measured using NMR (CDCl3). Conversion of TMTHSI with benzyl azide reached 79% after 225 seconds, the reaction with BCN-OH took about 40-fold longer (9312 seconds). The reaction conversion (%) is calculated based on triazole signals, taking the plateau of triazole signal at the end of reaction as 100% level=when all TMTHSI or BCN-OH fully reacted with benzylazide. The results of the measurements are included in FIG. 17A.

[3] = Storage stability as a powder, checked by 1H-NMR and LC/MS; assay type: physicochemical; details: stored as a powder at both light and dark locations under atmospheric pressure; 1H-NMR and LC/MS (SC_BASE)
Excerpt: TMTHSI was proven to be stable during storage.

[4] = Dommerholt et al.; cited from earlier work

compound still in tact after storage [3] | SMILES | kt value in the reaction with benzylazide [1] | time to reach 79% conversion with benzyl azide ([2]; 1.3 eq benzylazide, CDCl3, NMR) | other results
– | OCC1[C@H]2CCC#CCC[C@@H]12 (some centres unmarked) [BCN-OH, reference compound] | 0.12 M^−1S^−1 | 9312 s | reaction time relative to TMTHSI (fold longer) ([2]; 1.3 eq benzylazide, CDCl3, NMR): about 40 fold
≥ 10 months | CC1(C)C#CC(C)(C)CS(=N)(=O)C1 [Compound 3, 1-imino-3,3,6,6-tetramethyl-4,5-didehydro-2,3,6,7-tetrahydro-1H-1λ^6-thiepine 1-oxide] | 0.83 M^−1S^−1 | 225 s | rate relative to BCN-OH (times faster) [1]: approximately 7 times; Conversion with benzyl azide ([2]; after 225 seconds, 1.3 eq benzylazide, CDCl3, NMR, based on triazole signals): 79%; comparison of reaction kinetics with BCN-OH (FIG. 17A) ([2]; reaction with benzylazide, NMR): significantly faster than BCN-OH
≥ 4 months | CC1(C)C#CC(C)(C)CS(=O)(=NC(=O)ON2C(=O)CCC2=O)C1 [Compound 12, 2,5-dioxopyrrolidin-1-yl (3,3,6,6-tetramethyl-1-oxido-4,5-didehydro-2,3,6,7-tetrahydro-1λ^6-thiepan-1-ylidene)carbamate] | – | – | –
– | CC1(C)C#CC(C)(C)CSC1 [TMTH, 3,3,6,6-tetramethylthiacycloheptyne] | – | – | stability of TMTH [4]: poor stability
